Laboratory results published in ChEMBL document CHEMBL3872259, “Synthesis, characterization, and in vitro SAR evaluation of N,N'-bis(arylmethyl)-C2-alkyl substituted imidazolium salts” (Bioorg Med Chem Lett, 2017).

Test: Antiproliferative activity against human HOP62 cells assessed as cell growth at 10 uM measured after 48 hrs by sulforhodamine B assay relative to control
Format: functional
Details: HOP-62, 48 h, read-out: Activity

Point of comparison: `CCc1n(Cc2ccc3ccccc3n2)cc[n+]1Cc1ccc2ccccc2n1.[Cl-]`, growth at 10 µM 40.9%. Against it:
- CCCc1n(Cc2ccc3ccccc3n2)cc[n+]1Cc1ccc2ccccc2n1.[Cl-] — higher, 51.7%

Test: Antiproliferative activity against human EKVX cells assessed as cell growth at 10 uM measured after 48 hrs by sulforhodamine B assay relative to control
Format: functional
Details: read-out: Activity

Point of comparison: `CCc1n(Cc2ccc3ccccc3n2)cc[n+]1Cc1ccc2ccccc2n1.[Cl-]`, growth at 10 µM 31.9%. Against it:
- CCCc1n(Cc2ccc3ccccc3n2)cc[n+]1Cc1ccc2ccccc2n1.[Cl-] — higher, 58.1%

Test: Antiproliferative activity against human A549/ATCC cells assessed as cell growth at 10 uM measured after 48 hrs by sulforhodamine B assay relative to control
Format: functional
Details: A549, 48 h, read-out: Activity

Point of comparison: `CCc1n(Cc2ccc3ccccc3n2)cc[n+]1Cc1ccc2ccccc2n1.[Cl-]`, growth at 10 µM 57.4%. Against it:
- CCCc1n(Cc2ccc3ccccc3n2)cc[n+]1Cc1ccc2ccccc2n1.[Cl-] — higher, 62.8%

Test: Antiproliferative activity against human NCI-H460 cells assessed as reduction in cell viability measured after 72 hrs by MTT assay
Format: functional, cell-based
Details: NCI-H460, 72 h

Point of comparison: `CCCc1n(Cc2ccc3ccccc3n2)cc[n+]1Cc1ccc2ccccc2n1.[Cl-]`, GI50 2.56 µM. Against it:
- CCc1n(Cc2ccc3ccccc3n2)cc[n+]1Cc1ccc2ccccc2n1.[Cl-] — 5-fold lower, 0.511 µM

Point of comparison: `CCc1n(Cc2ccc3ccccc3n2)cc[n+]1Cc1ccc2ccccc2n1.[Cl-]`, IC50 6 µM. Against it:
- CCCc1n(Cc2ccc3ccccc3n2)cc[n+]1Cc1ccc2ccccc2n1.[Cl-] — within 1.5-fold, 5 µM

Point of comparison: `CCCc1n(Cc2ccc3ccccc3n2)cc[n+]1Cc1ccc2ccccc2n1.[Cl-]`, TGI 11.7 µM. Against it:
- CCc1n(Cc2ccc3ccccc3n2)cc[n+]1Cc1ccc2ccccc2n1.[Cl-] — within 1.5-fold, 11.9 µM

Same assay, conditions: NCI-H460, 72 h, read-out: LC50 (the source's name)

Point of comparison: `CCCc1n(Cc2ccc3ccccc3n2)cc[n+]1Cc1ccc2ccccc2n1.[Cl-]`, CC50 39.8 µM. Against it:
- CCc1n(Cc2ccc3ccccc3n2)cc[n+]1Cc1ccc2ccccc2n1.[Cl-] — within 1.5-fold, 45.7 µM

Test: Antiproliferative activity against human NCI-H1975 cells assessed as reduction in cell viability measured after 72 hrs by MTT assay
Format: functional, cell-based
Details: NCI-H1975, 72 h

Point of comparison: `CCCc1n(Cc2ccc3ccccc3n2)cc[n+]1Cc1ccc2ccccc2n1.[Cl-]`, IC50 1 µM. Against it:
- CCc1n(Cc2ccc3ccccc3n2)cc[n+]1Cc1ccc2ccccc2n1.[Cl-] — lower, < 1 µM

Test: Antiproliferative activity against human HCC827 cells assessed as reduction in cell viability measured after 72 hrs by MTT assay
Format: functional, cell-based
Details: HCC827, 72 h

Point of comparison: `CCc1n(Cc2ccc3ccccc3n2)cc[n+]1Cc1ccc2ccccc2n1.[Cl-]`, IC50 9 µM. Against it:
- CCCc1n(Cc2ccc3ccccc3n2)cc[n+]1Cc1ccc2ccccc2n1.[Cl-] — within 1.5-fold, 7 µM

Test: Antiproliferative activity against human A549 cells assessed as reduction in cell viability measured after 72 hrs by MTT assay
Format: functional, cell-based
Details: A549, 72 h

Point of comparison: `CCc1n(Cc2ccc3ccccc3n2)cc[n+]1Cc1ccc2ccccc2n1.[Cl-]`, GI50 5.27 µM. Against it:
- CCCc1n(Cc2ccc3ccccc3n2)cc[n+]1Cc1ccc2ccccc2n1.[Cl-] — within 1.5-fold, 6.78 µM

Point of comparison: `CCc1n(Cc2ccc3ccccc3n2)cc[n+]1Cc1ccc2ccccc2n1.[Cl-]`, IC50 11 µM. Against it:
- CCCc1n(Cc2ccc3ccccc3n2)cc[n+]1Cc1ccc2ccccc2n1.[Cl-] — within 1.5-fold, 10 µM

`CCc1n(Cc2ccc3ccccc3n2)cc[n+]1Cc1ccc2ccccc2n1.[Cl-]` and `CCCc1n(Cc2ccc3ccccc3n2)cc[n+]1Cc1ccc2ccccc2n1.[Cl-]` cannot be ordered by LC50: over 100 µM for the first, over 100 µM for the second.

`CCc1n(Cc2ccc3ccccc3n2)cc[n+]1Cc1ccc2ccccc2n1.[Cl-]` and `CCCc1n(Cc2ccc3ccccc3n2)cc[n+]1Cc1ccc2ccccc2n1.[Cl-]` cannot be ordered by TGI: over 100 µM for the first, over 100 µM for the second.

Test: Aqueous solubility of the compound
Format: physicochemical
Details: buffer

Work on `CCc1n(Cc2ccc3ccccc3n2)cc[n+]1Cc1ccc2ccccc2n1.[Cl-]` yielded a solubility of over 80 mM.
`CCCc1n(Cc2ccc3ccccc3n2)cc[n+]1Cc1ccc2ccccc2n1.[Cl-]` gave a solubility of over 80 mM.

Test: Antiproliferative activity against human HOP92 cells assessed as cell growth at 10 uM measured after 48 hrs by sulforhodamine B assay relative to control
Format: functional
Details: HOP-92, 48 h, read-out: Activity

Point of comparison: `CCc1n(Cc2ccc3ccccc3n2)cc[n+]1Cc1ccc2ccccc2n1.[Cl-]`, growth at 10 µM -11.8%. Against it:
- CCCc1n(Cc2ccc3ccccc3n2)cc[n+]1Cc1ccc2ccccc2n1.[Cl-] — higher, 16%

Test: Antiproliferative activity against human NCI-H226 cells assessed as cell growth at 10 uM measured after 48 hrs by sulforhodamine B assay relative to control
Format: functional
Details: NCI-H226, 48 h, read-out: Activity

Point of comparison: `CCc1n(Cc2ccc3ccccc3n2)cc[n+]1Cc1ccc2ccccc2n1.[Cl-]`, growth at 10 µM 48.4%. Against it:
- CCCc1n(Cc2ccc3ccccc3n2)cc[n+]1Cc1ccc2ccccc2n1.[Cl-] — lower, 38%

Test: Antiproliferative activity against human NCI-H23 cells assessed as cell growth at 10 uM measured after 48 hrs by sulforhodamine B assay relative to control
Format: functional
Details: NCI-H23, 48 h, read-out: Activity

Point of comparison: `CCCc1n(Cc2ccc3ccccc3n2)cc[n+]1Cc1ccc2ccccc2n1.[Cl-]`, growth at 10 µM 13%. Against it:
- CCc1n(Cc2ccc3ccccc3n2)cc[n+]1Cc1ccc2ccccc2n1.[Cl-] — higher, 16%

Test: Antiproliferative activity against human NCI-H322M cells assessed as cell growth at 10 uM measured after 48 hrs by sulforhodamine B assay relative to control
Format: functional
Details: read-out: Activity

Point of comparison: `CCCc1n(Cc2ccc3ccccc3n2)cc[n+]1Cc1ccc2ccccc2n1.[Cl-]`, growth at 10 µM 72.1%. Against it:
- CCc1n(Cc2ccc3ccccc3n2)cc[n+]1Cc1ccc2ccccc2n1.[Cl-] — higher, 73.1%

Test: Antiproliferative activity against human NCI-H460 cells assessed as cell growth at 10 uM measured after 48 hrs by sulforhodamine B assay relative to control
Format: functional
Details: NCI-H460, 48 h, read-out: Activity

Point of comparison: `CCCc1n(Cc2ccc3ccccc3n2)cc[n+]1Cc1ccc2ccccc2n1.[Cl-]`, growth at 10 µM 34.2%. Against it:
- CCc1n(Cc2ccc3ccccc3n2)cc[n+]1Cc1ccc2ccccc2n1.[Cl-] — higher, 34.8%

Test: Antiproliferative activity against human NCI-H522 cells assessed as cell growth at 10 uM measured after 48 hrs by sulforhodamine B assay relative to control
Format: functional
Details: NCI-H522, 48 h, read-out: Activity

Point of comparison: `CCc1n(Cc2ccc3ccccc3n2)cc[n+]1Cc1ccc2ccccc2n1.[Cl-]`, growth at 10 µM -3.51%. Against it:
- CCCc1n(Cc2ccc3ccccc3n2)cc[n+]1Cc1ccc2ccccc2n1.[Cl-] — higher, 22.8%

Test: Growth inhibition of human EKVX cells measured after 48 hrs by sulforhodamine B assay
Format: functional
Details: not given

Point of comparison: `CCCc1n(Cc2ccc3ccccc3n2)cc[n+]1Cc1ccc2ccccc2n1.[Cl-]`, GI50 12.5 µM. Against it:
- CCc1n(Cc2ccc3ccccc3n2)cc[n+]1Cc1ccc2ccccc2n1.[Cl-] — 36-fold lower, 0.343 µM

Point of comparison: `CCc1n(Cc2ccc3ccccc3n2)cc[n+]1Cc1ccc2ccccc2n1.[Cl-]`, TGI 41.5 µM. Against it:
- CCCc1n(Cc2ccc3ccccc3n2)cc[n+]1Cc1ccc2ccccc2n1.[Cl-] — higher, > 100 µM

Same assay, conditions: read-out: LC50 (the source's name)

`CCc1n(Cc2ccc3ccccc3n2)cc[n+]1Cc1ccc2ccccc2n1.[Cl-]` and `CCCc1n(Cc2ccc3ccccc3n2)cc[n+]1Cc1ccc2ccccc2n1.[Cl-]` cannot be ordered by CC50: over 100 µM for the first, over 100 µM for the second.

Test: Growth inhibition of human HOP62 cells measured after 48 hrs by sulforhodamine B assay
Format: functional
Details: HOP-62, 48 h

Point of comparison: `CCCc1n(Cc2ccc3ccccc3n2)cc[n+]1Cc1ccc2ccccc2n1.[Cl-]`, GI50 4.28 µM. Against it:
- CCc1n(Cc2ccc3ccccc3n2)cc[n+]1Cc1ccc2ccccc2n1.[Cl-] — within 1.5-fold, 4.66 µM

Point of comparison: `CCCc1n(Cc2ccc3ccccc3n2)cc[n+]1Cc1ccc2ccccc2n1.[Cl-]`, TGI 19.4 µM. Against it:
- CCc1n(Cc2ccc3ccccc3n2)cc[n+]1Cc1ccc2ccccc2n1.[Cl-] — 1.6-fold higher, 31.5 µM

Same assay, conditions: HOP-62, 48 h, read-out: LC50 (the source's name)

Point of comparison: `CCCc1n(Cc2ccc3ccccc3n2)cc[n+]1Cc1ccc2ccccc2n1.[Cl-]`, CC50 62.6 µM. Against it:
- CCc1n(Cc2ccc3ccccc3n2)cc[n+]1Cc1ccc2ccccc2n1.[Cl-] — higher, > 100 µM

Test: Growth inhibition of human HOP92 cells measured after 48 hrs by sulforhodamine B assay
Format: functional
Details: HOP-92, 48 h

Point of comparison: `CCc1n(Cc2ccc3ccccc3n2)cc[n+]1Cc1ccc2ccccc2n1.[Cl-]`, GI50 0.0183 µM. Against it:
- CCCc1n(Cc2ccc3ccccc3n2)cc[n+]1Cc1ccc2ccccc2n1.[Cl-] — 22-fold higher, 0.399 µM

Point of comparison: `CCc1n(Cc2ccc3ccccc3n2)cc[n+]1Cc1ccc2ccccc2n1.[Cl-]`, TGI 0.521 µM. Against it:
- CCCc1n(Cc2ccc3ccccc3n2)cc[n+]1Cc1ccc2ccccc2n1.[Cl-] — 6.2-fold higher, 3.23 µM

Same assay, conditions: HOP-92, 48 h, read-out: LC50 (the source's name)

Point of comparison: `CCc1n(Cc2ccc3ccccc3n2)cc[n+]1Cc1ccc2ccccc2n1.[Cl-]`, CC50 19.7 µM. Against it:
- CCCc1n(Cc2ccc3ccccc3n2)cc[n+]1Cc1ccc2ccccc2n1.[Cl-] — within 1.5-fold, 23.2 µM

Test: Growth inhibition of human NCI-H226 cells measured after 48 hrs by sulforhodamine B assay
Format: functional
Details: NCI-H226, 48 h

Point of comparison: `CCc1n(Cc2ccc3ccccc3n2)cc[n+]1Cc1ccc2ccccc2n1.[Cl-]`, GI50 2.56 µM. Against it:
- CCCc1n(Cc2ccc3ccccc3n2)cc[n+]1Cc1ccc2ccccc2n1.[Cl-] — within 1.5-fold, 3.4 µM

Point of comparison: `CCc1n(Cc2ccc3ccccc3n2)cc[n+]1Cc1ccc2ccccc2n1.[Cl-]`, TGI 30.8 µM. Against it:
- CCCc1n(Cc2ccc3ccccc3n2)cc[n+]1Cc1ccc2ccccc2n1.[Cl-] — within 1.5-fold, 34.8 µM

Same assay, conditions: NCI-H226, 48 h, read-out: LC50 (the source's name)

`CCc1n(Cc2ccc3ccccc3n2)cc[n+]1Cc1ccc2ccccc2n1.[Cl-]` and `CCCc1n(Cc2ccc3ccccc3n2)cc[n+]1Cc1ccc2ccccc2n1.[Cl-]` cannot be ordered by CC50: over 100 µM for the first, over 100 µM for the second.

Test: Growth inhibition of human NCI-H23 cells measured after 48 hrs by sulforhodamine B assay
Format: functional
Details: NCI-H23, 48 h

Point of comparison: `CCCc1n(Cc2ccc3ccccc3n2)cc[n+]1Cc1ccc2ccccc2n1.[Cl-]`, GI50 0.865 µM. Against it:
- CCc1n(Cc2ccc3ccccc3n2)cc[n+]1Cc1ccc2ccccc2n1.[Cl-] — 3.1-fold lower, 0.275 µM

Point of comparison: `CCc1n(Cc2ccc3ccccc3n2)cc[n+]1Cc1ccc2ccccc2n1.[Cl-]`, TGI 8.66 µM. Against it:
- CCCc1n(Cc2ccc3ccccc3n2)cc[n+]1Cc1ccc2ccccc2n1.[Cl-] — 1.7-fold higher, 15 µM

Same assay, conditions: NCI-H23, 48 h, read-out: LC50 (the source's name)

`CCc1n(Cc2ccc3ccccc3n2)cc[n+]1Cc1ccc2ccccc2n1.[Cl-]` and `CCCc1n(Cc2ccc3ccccc3n2)cc[n+]1Cc1ccc2ccccc2n1.[Cl-]` cannot be ordered by CC50: over 100 µM for the first, over 100 µM for the second.

Test: Growth inhibition of human NCI-H322M cells measured after 48 hrs by sulforhodamine B assay
Format: functional
Details: not given

Point of comparison: `CCc1n(Cc2ccc3ccccc3n2)cc[n+]1Cc1ccc2ccccc2n1.[Cl-]`, GI50 6.33 µM. Against it:
- CCCc1n(Cc2ccc3ccccc3n2)cc[n+]1Cc1ccc2ccccc2n1.[Cl-] — within 1.5-fold, 4.68 µM

Point of comparison: `CCCc1n(Cc2ccc3ccccc3n2)cc[n+]1Cc1ccc2ccccc2n1.[Cl-]`, TGI 41.9 µM. Against it:
- CCc1n(Cc2ccc3ccccc3n2)cc[n+]1Cc1ccc2ccccc2n1.[Cl-] — the same, 41.9 µM

Same assay, conditions: read-out: LC50 (the source's name)

`CCc1n(Cc2ccc3ccccc3n2)cc[n+]1Cc1ccc2ccccc2n1.[Cl-]` and `CCCc1n(Cc2ccc3ccccc3n2)cc[n+]1Cc1ccc2ccccc2n1.[Cl-]` cannot be ordered by CC50: over 100 µM for the first, over 100 µM for the second.

Test: Growth inhibition of human NCI-H522 cells measured after 48 hrs by sulforhodamine B assay
Format: functional
Details: NCI-H522, 48 h

Point of comparison: `CCc1n(Cc2ccc3ccccc3n2)cc[n+]1Cc1ccc2ccccc2n1.[Cl-]`, GI50 0.0837 µM. Against it:
- CCCc1n(Cc2ccc3ccccc3n2)cc[n+]1Cc1ccc2ccccc2n1.[Cl-] — 7.2-fold higher, 0.601 µM

Point of comparison: `CCc1n(Cc2ccc3ccccc3n2)cc[n+]1Cc1ccc2ccccc2n1.[Cl-]`, LC50 (50% lethal concentration) 37.9 µM. Against it:
- CCCc1n(Cc2ccc3ccccc3n2)cc[n+]1Cc1ccc2ccccc2n1.[Cl-] — within 1.5-fold, 27.1 µM

Point of comparison: `CCCc1n(Cc2ccc3ccccc3n2)cc[n+]1Cc1ccc2ccccc2n1.[Cl-]`, TGI 4.3 µM. Against it:
- CCc1n(Cc2ccc3ccccc3n2)cc[n+]1Cc1ccc2ccccc2n1.[Cl-] — 2.9-fold lower, 1.49 µM
